Assay results from US20100267753A1, “METHODS OF TREATING DISORDERS ASSOCIATED WITH PROTEIN KINASE CK2 ACTIVITY” (priority 2009, published 2010).
Entries after “also recorded” stand apart in the source; their conditions may differ. Like-named read-outs stand apart in the source and are kept apart here.

Legend:
[1] = Pharmacokinetics in mouse (IV bolus or oral dose); assay type: in vivo; details: Mouse; for Cmax: read-out: Cmax
Experimental: The pharmacokinetics properties of drugs were investigated in three species, following an intravenous (IV) bolus or oral (PO) dose of Compound K at the dosages indicated in the chart. Blood samples were collected at predetermined times and the plasma separated. Plasma was separated from the blood samples collected at 5, 15 and 30 minutes and 1, 2, 4, 8 and 24 hours post-dose.
Drug levels were quantified by the LC/MS/MS method described below. Noncompartmental pharmacokinetic analysis was applied for intravenous administration. […] The terminal t1/2 and C0 were calculated using the last three and the first three data points, respectively
Bioanalysis was performed using a Quattro Micro LC/MS/MS instrument in the MRM detection mode, with an internal standard (1S). Briefly, 15 μL plasma samples were prepared for analysis using protein precipitation with 120 μL of acetonitrile. The supernatants were transferred into a 96 well plate and subjected to LC-MS/MS analysis using a Phenomenex Polar-RP HPLC column. The mobile phases were 10 mM NH4HCO3 in water (Solution-A) and 10 mM NH4HCO3 in methanol (Solution-B). The column was initially equilibrated with 25% Solution-B and followed with 100% Solution B over 5 minutes. […] Quantitation of the analytes was performed in the batch mode with two bracketing calibration curves according to the bioanalytical sample list.

[2] = system: formalin-induced persistent pain; test: Formalin-induced persistent pain model (flinching); assay type: in vivo, ICR mice
Experimental: See Hunskaar, et al., “The formalin test in mice: Dissociation between inflammatory and non-inflammatory pain,” Pain, vol. […] 89, 53-63 (2000). These tests were conducted with ICR mice, in accordance with guidelines established by the International Association for the Study of Pain. Compounds of the invention were used as solutions of about 3-20 mg/mL in aqueous solution at about pH 8. […] The test animals were monitored for at least 40 minutes, during which time the number of flinches occurring during each 5-minute period were observed and recorded. A cohort of 12 animals were used for each dose level of each compound tested.
The compounds were administered orally in a single dose, of 30, 100, and 200 mg/kg, one hour prior to injection of formalin Pain response was measured by flinching frequency.

[3] = system: CFA-induced thermal hyperalgesia; test: CFA-induced thermal hyperalgesia model (Hargreaves); assay type: in vivo, ICR mice; details: 25, 75 or 150 mg/kg BID for four days, dosed as suspensions
Experimental: The observations of pain responses were done blindly.
[…] On day 4, test subjects received a single injection of CFA (20 microliters) subcutaneously in the plantar surface of the left rear paw. CFA was injected subcutaneously into the plantar surface of the left hind paw of each test subject, under isoflurane anesthesia. […] On day 5, thermal responses were measured prior to treatment with the compound and again 1, 2, and 4 hours after treatment with […]. Withdrawal latencies were measured in response to thermal stimulus by the Hargreaves method. Naproxen was used as a positive control.

In the case of `O=C(O)c1ccc2c(c1)nc(Nc1cccc(Cl)c1)c1ccncc12` [Compound K, 5-(3-chlorophenylamino)benzo[c][2,6]naphthyridine-8-carboxylic acid], the CLs ([1]; 5 mg/kg IV) is reported as 41.7 mL/min/kg, the “Terminal T1/2” value ([1]; 5 mg/kg IV) is reported as 5.0 h and the “% F0-inf” value ([1]; 25 mg/kg PO) is reported as 20.1%. The AUC(0-inf) ([1]; in vivo, 5 mg/kg IV, 25 mM sodium phosphate buffer) was 2000 ng·h/mL, the Cmax ([1]; in vivo, 5 mg/kg IV) was 6700 ng/mL and the Vd ([1]; in vivo, 5 mg/kg IV, read-out: Vdss) was 18.1 L/kg. The AUC(0-inf) ([1]; in vivo, 25 mg/kg PO, 25 mM phosphate buffer) was 2010 ng·h/mL, the Cmax ([1]; in vivo, 25 mg/kg PO) was 311 ng/mL and the half-life ([1]; in vivo, 25 mg/kg PO, read-out: Terminal T1/2 (converted)) was 7.1 h. The “formalin-induced flinching, Phase II” value ([2]; 10-40 minute phase post-injection, single oral dose 30, 100, 200 mg/kg) was “significantly reduced formalin-induced flinching; also recorded: statistically significant effects were seen in two of the three test groups”, the “formalin-induced flinching, Phase II” value ([2]; 10-40 minute phase, 30 mg/kg oral) was “effective” and the “formalin-induced flinching, Phase II” value ([2]; 10-40 minute phase, 200 mg/kg oral) was “effective”. For the same molecule, the “formalin-induced flinching, Phase I” value ([2]; first 9 minute phase post-injection, single oral dose 30, 100, 200 mg/kg one hour prior to formalin) was “neither compound affected rates of flinching; also recorded: not statistically significant” and the “effect on CFA-induced thermal hyperalgesia” value [3] was “Neither compound exhibited a statistically significant effect”.
